Measurements as given in patent publication US8669292B2, “Therapeutic formulation” (Orion Therapeutics, LLC, priority 2005, dated 2014).
Converted amounts (≈) assume the structure as drawn. Like-named read-outs stand apart in the source and are kept apart here.

Columns and labels:
Format in all cases: cell-based
[1] = tested on: HCT-116 human colon cancer cells; assay: IC50 assay (concentration-cell number study); conditions: HCT-116, 120 h exposure
Description: Concentration-cell number studies (IC50 assay) were carried out utilizing 12 separate compositions (numbered 1-12 below) against 13 different cancer cell lines (see Table 6). […] On day 3, cells are exposed to different concentrations of the drug. Flasks are incubated for 120 h (5 d) in a 5% CO2 incubator at 37° C. and the cells harvested with trypsin, washed once with Hanks Balanced Salt Solution (HBSS) and re-suspended in HBSS containing 0.08% Trypan Blue. Both viable and dead cells are counted using a hemocytometer. Viable cell numbers are normalized to an untreated control and plotted as a function of drug concentration. The IC50 value is determined using Prism 4.0.

H125 Lung Cancer = assay: IC50 assay (concentration-cell number study); conditions: 120 h exposure
Description: (§1) These cells are grown in 5 ml culture medium (RPMI-1640+15% Bovine Calf serum containing 1% penicillin-streptomycin, and 1% Glutamine) at 37° C. and 5% CO2 at a starting concentration of 5×10^4 cells/T25 flask. On day 3, cells are exposed to different concentrations of the drug. Flasks are incubated for 120 h (5 d) in a 5% CO2 incubator at 37° C. and the cells harvested with trypsin, washed once with Hanks Balanced Salt Solution (HBSS) and re-suspended in HBSS containing 0.08% Trypan Blue. Both viable and dead cells are counted using a hemocytometer. Viable cell numbers are normalized to an untreated control and plotted as a function of drug concentration. The IC50 value is determined using Prism 4.0.
(§2) Cell Lines utilized in IC50 Assays: HCT-116 human colon cancer cells, H125 Lung Cancer, MCF-7, Breast Cancer, MDA-235 Breast Cancer, LNCaP Prostate Cancer, OVAR-5 Ovarian Cancer, U251N Brain Cancer Sarcoma 180, Panc 01Pancreatic Cancer, CCRF-CEM Leukemia, HEP-G2 Liver Cancer, L1210 Leukemia, Colon 38 Colon Cancer.

MCF-7 Breast Cancer = assay: IC50 assay (concentration-cell number study); conditions: 120 h exposure
Description: (§3) Concentration-cell number studies (IC50 assay) were carried out utilizing 12 separate compositions (numbered 1-12 below) against 13 different cancer cell lines (see Table 6). These cells are grown in 5 ml culture medium (RPMI-1640+15% Bovine Calf serum containing 1% penicillin-streptomycin, and 1% Glutamine) at 37° C. and 5% CO2 at a starting concentration of 5×10^4 cells/T25 flask. On day 3, cells are exposed to different concentrations of the drug. Flasks are incubated for 120 h (5 d) in a 5% CO2 incubator at 37° C. and the cells harvested with trypsin, washed once with Hanks Balanced Salt Solution (HBSS) and re-suspended in HBSS containing 0.08% Trypan Blue. Both viable and dead cells are counted using a hemocytometer. Viable cell numbers are normalized to an untreated control and plotted as a function of drug concentration. The IC50 value is determined using Prism 4.0.

MDA-235 Breast Cancer = assay: IC50 assay (concentration-cell number study); conditions: 120 h exposure
Description: as §3

LNCaP Prostate Cancer = assay: IC50 assay (concentration-cell number study); conditions: 120 h exposure
Description: as §3

OVAR-5 Ovarian Cancer = assay: IC50 assay (concentration-cell number study); conditions: 120 h exposure
Description: as §3

U251N Brain Cancer = assay: IC50 assay (concentration-cell number study); conditions: 120 h exposure
Description: as §3

Sarcoma 180 = assay: IC50 assay (concentration-cell number study); conditions: 120 h exposure
Description: as §3

[2] = tested on: Panc 01 Pancreatic Cancer; assay: IC50 assay (concentration-cell number study); conditions: 120 h exposure
Description: as §3

CCRF-CEM Leukemia = assay: IC50 assay (concentration-cell number study); conditions: 120 h exposure
Description: as §3

HEP-G2 Liver Cancer = assay: IC50 assay (concentration-cell number study); conditions: 120 h exposure
Description: as §3

L1210 Leukemia = assay: IC50 assay (concentration-cell number study); conditions: 120 h exposure
Description: as §3

Colon 38 Colon Cancer = assay: IC50 assay (concentration-cell number study); conditions: 120 h exposure
Description: as §1, §2

[3] = tested on: 13 different cancer cell lines; assay: IC50 assays, average or range over all cell lines; conditions: average of 13 cell lines
Description: as §1, §2

[4] = tested on: HCT-116 human colon cancer cells; assay: Clonogenic dose response
Description: Clonogenic survival of the cells was measured by a standard tissue culture procedure.
Asimicin was prepared in ethanol. Clonogenic survival of the cells was measured by a standard tissue culture procedure.

[5] = Homo sapiens, HCT-116, 120 h, read-out: IC50

Molecule: O=c1[nH]cc(F)c(=O)[nH]1 [5-Fluorouracil, reference compound]
- IC50 [1, 5]: 150 ng/mL (≈ 1.15 µM)

Molecule: CC[C@]1(O)C[C@H]2CN(CCc3c([nH]c4ccccc34)[C@@](C(=O)OC)(c3cc4c(cc3OC)N(C=O)[C@H]3[C@@](O)(C(=O)OC)[C@H](OC(C)=O)[C@]5(CC)C=CCN6CC[C@]43[C@@H]65)C2)C1 [Vincristine, reference compound]
- IC50 [1, 5]: 5 ng/mL (≈ 0.00606 µM)

Molecule: COc1cccc2c1C(=O)c1c(O)c3c(c(O)c1C2=O)C[C@@](O)(C(=O)CO)C[C@@H]3O[C@H]1C[C@H](N)[C@H](O)[C@H](C)O1 [Adriamycin, reference compound]
- IC50 [1, 5]: 30 ng/mL (≈ 0.0552 µM)

Molecule: Acetogenin [Composition 3]
- IC50 [1]: 2 ng/mL
- IC50 ([1]; listed as 3): 2.0 ng/mL
- IC50 (H125 Lung Cancer): 1.4 ng/mL
- IC50 (MCF-7 Breast Cancer): 1.3 ng/mL
- IC50 (MDA-235 Breast Cancer): 1.3 ng/mL
- IC50 (LNCaP Prostate Cancer): 5.0 ng/mL
- IC50 (OVAR-5 Ovarian Cancer): 1.8 ng/mL
- IC50 (U251N Brain Cancer): 1.2 ng/mL
- IC50 (Sarcoma 180): 1.2 ng/mL
- IC50 [2]: .41 ng/mL
- IC50 (CCRF-CEM Leukemia): 5.2 ng/mL
- IC50 (HEP-G2 Liver Cancer): 2.2 ng/mL
- IC50 (L1210 Leukemia): 13 ng/mL
- IC50 (Colon 38 Colon Cancer): .19 ng/mL
- IC50 AVG. [3]: 2.8 ng/mL

Molecule: Asimicin
- clonogenic survival ([4]; 24 h exposure, 10 micrograms/ml): 0.1
- effect on clonogenic survival ([4]; 24 h exposure, concentrations up to 1 microgram/ml): no effect
- fold greater cell killing than found with the 24 h exposure ([4]; 168 h versus 24 h exposure): ~100.000 fold
- effect on the survival of the tumor cells ([4]; concentration of up to 10 micrograms/ml, exposure time not given): no effect
- concentration with cell survival at the 0.1 level ([4]; extended exposure 168 h): 200 picograms/ml

Molecule: O=C1O[C@H]([C@@H](O)CO)C(O)=C1O [Vitamin C, reference compound]
- IC50 [1, 5]: > 100000 ng/mL
